Source: the NIST ThermoML archive (doi:10.1016/j.jct.2012.10.011)
± gives the expanded uncertainty stated by the source.

Columns and labels:
[1] = for molar entropy: 101.33 kPa, Vacuum adiabatic calorimetry; for vapor or sublimation pressure: Closed cell (Static) method
[2] = Molar enthalpy of transition or fusion; conditions: Crystal; Adiabatic calorimetry
[3] = molar enthalpy of vaporization or sublimation; conditions: 298.15 K; Liquid; Static calorimetry
[4] = molar heat capacity at constant pressure; conditions: 101.33 kPa, Crystal, Vacuum adiabatic calorimetry

CN=C=O [methyl isocyanate]
[1]
Conditions | Triple point temperature [K] | molar entropy [J/K/mol] | vapor or sublimation pressure [kPa]
20 K, Crystal | – | 2.44 ± 0.037 | –
30 K, Crystal | – | 6.933 ± 0.081 | –
40 K, Crystal | – | 12.87 ± 0.099 | –
50 K, Crystal | – | 19.5 ± 0.12 | –
60 K, Crystal | – | 26.39 ± 0.14 | –
70 K, Crystal | – | 33.31 ± 0.16 | –
80 K, Crystal | – | 40.14 ± 0.18 | –
90 K, Crystal | – | 46.89 ± 0.37 | –
100 K, Crystal | – | 53.42 ± 0.38 | –
110 K, Crystal | – | 59.72 ± 0.39 | –
120 K, Crystal | – | 65.78 ± 0.4 | –
130 K, Crystal | – | 71.59 ± 0.41 | –
140 K, Crystal | – | 77.17 ± 0.42 | –
150 K, Crystal | – | 82.52 ± 0.42 | –
160 K, Crystal | – | 87.67 ± 0.43 | –
170 K, Crystal | – | 92.65 ± 0.44 | –
178.47 K, Liquid | – | – | 0.024 ± 0.0067
180 K, Liquid | – | 139.42 ± 0.51 | –
184.03 K, Liquid | – | – | 0.036 ± 0.0067
189.11 K, Liquid | – | – | 0.04666 ± 0.0067
190 K, Liquid | – | 145 ± 0.52 | –
194.19 K, Liquid | – | – | 0.06666 ± 0.0067
199.43 K, Liquid | – | – | 0.1293 ± 0.0067
200 K, Liquid | – | 150.29 ± 0.53 | –
204.46 K, Liquid | – | – | 0.2053 ± 0.0067
209.49 K, Liquid | – | – | 0.3106 ± 0.0067
210 K, Liquid | – | 155.31 ± 0.53 | –
214.49 K, Liquid | – | – | 0.4826 ± 0.0067
219.48 K, Liquid | – | – | 0.7226 ± 0.008
220 K, Liquid | – | 160.1 ± 0.54 | –
224.44 K, Liquid | – | – | 1.048 ± 0.012
229.43 K, Liquid | – | – | 1.5 ± 0.013
230 K, Liquid | – | 164.68 ± 0.55 | –
234.35 K, Liquid | – | – | 2.12 ± 0.015
239.21 K, Liquid | – | – | 2.938 ± 0.016
240 K, Liquid | – | 169.08 ± 0.55 | –
244.16 K, Liquid | – | – | 4.036 ± 0.019
249.07 K, Liquid | – | – | 5.45 ± 0.021
250 K, Liquid | – | 173.31 ± 0.56 | –
253.98 K, Liquid | – | – | 7.286 ± 0.027
258.88 K, Liquid | – | – | 9.597 ± 0.031
260 K, Liquid | – | 177.38 ± 0.57 | –
263.72 K, Liquid | – | – | 12.47 ± 0.037
268.59 K, Liquid | – | – | 16.03 ± 0.045
270 K, Liquid | – | 181.33 ± 0.57 | –
273.4 K, Liquid | – | – | 20.31 ± 0.055
278.1 K, Liquid | – | – | 25.44 ± 0.065
280 K, Liquid | – | 185.16 ± 0.58 | –
282.71 K, Liquid | – | – | 31.41 ± 0.079
287.27 K, Liquid | – | – | 38.39 ± 0.095
290 K, Liquid | – | 188.89 ± 0.58 | –
296.38 K, Liquid | – | – | 56.22 ± 0.13
297.07 K, Liquid | – | – | 57.78 ± 0.13
300 K, Liquid | – | 192.52 ± 0.59 | –
Crystal, Adiabatic calorimetry | 178.46 ± 0.084 | – | –

Conditions | Molar enthalpy of transition or fusion [kcal/mol] | molar enthalpy [kcal/mol]
[2] | 1.782 ± 0.00382 | –
[3] | – | 6.871 ± 0.0359

[4]
Conditions | molar heat capacity at constant pressure [J/K/mol]
14.71 K | 2.971 ± 0.032
15.61 K | 3.494 ± 0.035
16.68 K | 4.234 ± 0.04
18.13 K | 5.318 ± 0.045
19.93 K | 6.837 ± 0.051
20 K | 6.9 ± 0.05
21.81 K | 8.41 ± 0.057
25.1 K | 11.4 ± 0.06
27.08 K | 13.31 ± 0.07
29.42 K | 15.5 ± 0.07
30 K | 16.07 ± 0.07
31.96 K | 17.95 ± 0.08
34.72 K | 20.64 ± 0.08
38.26 K | 23.96 ± 0.09
40 K | 25.53 ± 0.09
42.59 K | 27.81 ± 0.1
47.01 K | 31.56 ± 0.1
50 K | 34.07 ± 0.11
51.57 K | 35.36 ± 0.11
56.6 K | 39.11 ± 0.12
60 K | 41.49 ± 0.12
60.37 K | 41.76 ± 0.12
62.3 K | 43.18 ± 0.13
65.89 K | 45.61 ± 0.13
70 K | 48.2 ± 0.14
71.87 K | 49.37 ± 0.14
78.77 K | 53.47 ± 0.15
